Measurements reported in patent publication US12306535B2, “Photoacid generator for chemically amplified photoresists for deep ultra violet and extreme ultraviolet lithography” (International Business Machines Corporation, priority 2022, dated 2025).

How the values were obtained:
[1] = Acid-dissociation constant relative to tris(trifluoromethylsulfonyl)methane; type: physicochemical; settings: compared with tris(trifluoromethylsulfonyl)methane
[2] = smaller than that of tris(trifluoromethylsulfonyl)methane; cited from earlier work
[3] = relative to triphenylantimony and triphenylbismuth; cited from earlier work

Row | Compound | acid-dissociation constant of acids generated upon UV exposure [1] | further results
1 | N#Cc1[b-]2c(C#N)c(C#N)c(C#N)c(C#N)c2c(C#N)c(C#N)c1C#N.c1ccc([S+](c2ccccc2)c2ccccc2)cc1 [17B, triphenylsulfonium 1,2,3,4,5,6,7,8-octacyanobenzo[a]borinine] | higher than that of tris(trifluoromethylsulfonyl)methane | 
2 | N#Cc1[b-]2c(C#N)c(C#N)c(C#N)c(C#N)c2c(C#N)c(C#N)c1C#N.c1ccc([I+]c2ccccc2)cc1 [17D, diphenyliodonium 1,2,3,4,5,6,7,8-octacyanobenzo[a]borinine] | higher than that of tris(trifluoromethylsulfonyl)methane | 
3 | N#Cc1[b-]2c(C#N)c(C#N)c(C#N)c(C#N)c2c(C#N)c(C#N)c1C#N.c1ccc([S+]2CCCC2)cc1 [17F, phenylthiolanium 1,2,3,4,5,6,7,8-octacyanobenzo[a]borinine] | higher than that of tris(trifluoromethylsulfonyl)methane | 
4 | CC1(C)C2CCC1(CS(=O)(=O)O)C(=O)C2 (stereo not drawn) [camphorsulfonic anions] |  | acid-dissociation constant [2]: about 18 orders of magnitude
5 | diphenyliodonium bis(1,2,2-tricyanoethen-1-yl)-(1,1,2,4,5,5-hexacyanopent-1,4-dien-3-yl)borane [17C] | higher than that of tris(trifluoromethylsulfonyl)methane | 
6 | p-toluenesulfonate [p-toluenesulfonate anions] |  | acid-dissociation constant [2]: about 18 orders of magnitude
7 | phenylthiolanium bis(1,2,2-tricyanoethen-1-yl)-(1,1,2,4,5,5-hexacyanopent-1,4-dien-3-yl)borane [17E] | higher than that of tris(trifluoromethylsulfonyl)methane | 
8 | triphenylsulfonium bis(1,2,2-tricyanoethen-1-yl)-(1,1,2,4,5,5-hexacyanopent-1,4-dien-3-yl)borane [17A] | higher than that of tris(trifluoromethylsulfonyl)methane | 
9 | triphenyltin |  | mean lethal dose LD50 [3]: one to two orders of magnitude lower
